Molecular target: T1, JAK3 (JH1 and JH2 domain) (Homo sapiens, UniProt P52333)
T1 sequence (P52333 521-1111 limits assumed): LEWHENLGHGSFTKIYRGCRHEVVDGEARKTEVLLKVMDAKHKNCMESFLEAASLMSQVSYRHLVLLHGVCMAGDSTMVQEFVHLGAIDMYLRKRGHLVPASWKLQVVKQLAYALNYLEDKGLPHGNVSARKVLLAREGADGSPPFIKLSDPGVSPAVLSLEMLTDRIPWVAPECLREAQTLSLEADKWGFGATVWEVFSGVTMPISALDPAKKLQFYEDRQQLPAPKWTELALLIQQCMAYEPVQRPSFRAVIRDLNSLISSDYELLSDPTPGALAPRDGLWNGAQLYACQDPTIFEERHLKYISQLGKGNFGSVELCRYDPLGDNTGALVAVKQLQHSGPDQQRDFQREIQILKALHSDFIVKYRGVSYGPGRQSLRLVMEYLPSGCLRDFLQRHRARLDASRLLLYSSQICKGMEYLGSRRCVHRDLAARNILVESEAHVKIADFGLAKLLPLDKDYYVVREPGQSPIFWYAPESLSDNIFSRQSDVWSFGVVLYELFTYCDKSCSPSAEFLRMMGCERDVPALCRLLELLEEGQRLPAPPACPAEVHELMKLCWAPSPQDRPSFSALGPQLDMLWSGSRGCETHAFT
Assay: JAK3 Kinase Assay (ELISA of peptide substrate phosphorylation)
Format: biochemical
Details: purified JAK3 enzyme, 10 μM ATP, biotinylated peptide substrate, 1 hour at room temperature
Summary of the method: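 Sf21-baculovirus-expressed JAK3 (JH1+JH2), glutathione-bead purified, with biotinylated peptide substrate (in buffer containing 10 μM ATP) in HEPES pH 7.5/MgCl2/DTT, 1 h RT. Product was captured on Neutravidin, detected with HRP anti-phosphotyrosine (PY99)/TMB, OD 450/650 nm. Triplicate 16-point half-log series from 200 μM gave IC50; otherwise % inhibition at 1 μM.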

Compound | IC50
O=C1NCc2c1c1c3ccccc3n3c1c1c2c2ccccc2n1CCC(OC(=O)N1CCOCC1)CC3 (centres unmarked) [Cpd 185, 12,13-[3-(morpholin-4-yl-carbonyloxy)-pentan-1,5-yl]-6,7,12,13-tetrahydro-5-oxo-5H-indolo[2,3-a]pyrrolo[3,4-c]carbazole] | 69 nM
CC(C)NC(=O)OCC1Cn2c3ccccc3c3c4c(c5c6ccccc6n(c5c32)C1)C(=O)NC4 (centres unmarked) [Cpd 155] | 144 nM
O=C1NCc2c1c1c3ccccc3n3c1c1c2c2ccccc2n1C[C@H](O)[C@@H](O)C3 [Cpd 18, 12,13-[(2S,3S)-dihydroxy-butan-1,4-yl]-6,7,12,13-tetrahydro-5-oxo-5H-indolo[2,3-a]pyrrolo[3,4-c]carbazole] | 32 nM
CN(C)C1CCN(C(=O)C2(O)Cn3c4ccccc4c4c5c(c6c7ccccc7n(c6c43)CC2O)C(=O)NC5=O)C1 (centres unmarked) [Cpd 119, 12,13-{2-[(3-dimethylamino-pyrrolidin-1-yl)carbonyl]-2,3-dihydroxy-butan-1,4-yl}-12,13-dihydro-5,7-dioxo-6H-indolo[2,3-a]pyrrolo[3,4-c]carbazole] | 15 nM
CN1CCN(CC(=O)Nc2ccc3c(c2)c2c4c(c5c6ccccc6n6c5c2n3CC(O)C(O)C6)CNC4=O)CC1 (centres unmarked) [Cpd 205, 3-{[(4-methyl-piperazin-1-yl)methylcarbonyl]amino}-12,13-(2,3-dihydroxy-butan-1,4-yl)-6,7,12,13-tetrahydro-5-oxo-5H-indolo[2,3-a]pyrrolo[3,4-c]carbazole] | 42 nM
CN(C(=O)OC1CCn2c3ccccc3c3c4c(c5c6ccccc6n(c5c32)C1)C(=O)NC4=O)C1CCN(Cc2ccccc2)C1 (centres unmarked) [Cpd 61, 12,13-{2-[N-methyl-N-(1-benzyl-pyrrolidin-3-yl)carbamoyloxy]-butan-1,4-yl}-12,13-dihydro-5,7-dioxo-6H-indolo[2,3-a]pyrrolo[3,4-c]carbazole] | 543 nM
O=C1NCc2c1c1c3ccccc3n3c1c1c2c2ccccc2n1CC(O)(COC(=O)N1CCC(O)CC1)C3 (centres unmarked) [Cpd 149, 12,13-{2-hydroxy-2-[(4-hydroxy-piperidin-1-yl)carbonyloxymethyl]-propan-1,3-yl}-6,7,12,13-tetrahydro-5-oxo-5H-indolo[2,3-a]pyrrolo[3,4-c]carbazole] | 39 nM
COC1Cn2c3ccccc3c3c4c(c5c6ccccc6n(c5c32)CC1OC)C(=O)NC4=O (centres unmarked) [Cpd 10, 12,13-(2,3-dimethoxy-butan-1,4-yl)-12,13-dihydro-5,7-dioxo-6H-indolo[2,3-a]pyrrolo[3,4-c]carbazole] | 16 nM
CC(C)OCc1ccc2c(c1)c1c3c(c4c5ccccc5n5c4c1n2CC(CO)C5)CNC3=O (centres unmarked) [Cpd 211, 9-(isopropoxymethyl)-12,13-(2-hydroxymethyl-propan-1,3-yl)-6,7,12,13-tetrahydro-5-oxo-5H-indolo[2,3-a]pyrrolo[3,4-c]carbazole] | 107 nM
CN1CCN(C(=O)OC2Cn3c4ccccc4c4c5c(c6c7ccccc7n(c6c43)CC2O)C(=O)NC5=O)CC1 (centres unmarked) [Cpd 76, 12,13-{2-[(4-methyl-piperazin-1-yl)carbonyloxy]-3-hydroxy-butan-1,4-yl}-12,13-dihydro-5,7-dioxo-6H-indolo[2,3-a]pyrrolo[3,4-c]carbazole] | 64 nM
O=C1NC(=O)c2c1c1c3ccccc3n3c1c1c2c2ccccc2n1CC(O)(C(=O)NCCCN1CCCC1=O)C(O)C3 (centres unmarked) [Cpd 127, 12,13-(2-{[3-(2-oxo-pyrrolidin-1-yl)prop-1-yl]carbamoyl}-2,3-dihydroxy-butan-1,4-yl)-12,13-dihydro-5,7-dioxo-6H-indolo[2,3-a]pyrrolo[3,4-c]carbazole] | 48 nM
O=C1NCc2c1c1c3ccccc3n3c1c1c2c2ccccc2n1CC/C=C\CC3 [Cpd 5, 12,13-(hex-3-en-1,6-yl)-6,7,12,13-tetrahydro-5-oxo-5H-indolo[2,3-a]pyrrolo[3,4-c]carbazole] | 39 nM
COCCNC(=O)OC1CCn2c3ccccc3c3c4c(c5c6ccccc6n(c5c32)C1)C(=O)NC4=O (centres unmarked) [Cpd 41, 12,13-{2-[(2-methoxy-ethyl)carbamoyloxy]-butan-1,4-yl}-12,13-dihydro-5,7-dioxo-6H-indolo[2,3-a]pyrrolo[3,4-c]carbazole] | 8 nM
O=C1NCc2c1c1c3ccccc3n3c1c1c2c2ccccc2n1CC(O)(COC(=O)N1CCCNCC1)C3 (centres unmarked) [Cpd 146, 12,13-{2-hydroxy-2-[(hexahydro-1H-1,4-diazepin-1-yl)carbonyloxymethyl]-propan-1,3-yl}-6,7,12,13-tetrahydro-5-oxo-5H-indolo[2,3-a]pyrrolo[3,4-c]carbazole] | 26 nM
Cc1ccc(CNC(=O)OCC2Cn3c4ccccc4c4c5c(c6c7ccccc7n(c6c43)C2)C(=O)NC5)o1 (centres unmarked) [Cpd 156, 12,13-(2-{[(5-methyl-furan-2-yl)methyl]carbamoyloxymethyl}-propan-1,3-yl)-6,7,12,13-tetrahydro-5-oxo-5H-indolo[2,3-a]pyrrolo[3,4-c]carbazole] | ~200 nM
O=C1NC(=O)c2c1c1c3ccccc3n3c1c1c2c2ccccc2n1CC(O)(C(=O)N1CCN(CC(=O)N2CCCC2)CC1)C(O)C3 (centres unmarked) [Cpd 133, 12,13-(2-{[4-(pyrrolidin-1-yl-carbonylmethyl)piperazin-1-yl]carbonyl}-2,3-dihydroxy-butan-1,4-yl)-12,13-dihydro-5,7-dioxo-6H-indolo[2,3-a]pyrrolo[3,4-c]carbazole] | 54 nM
O=C1NCc2c1c1c3ccccc3n3c1c1c2c2ccccc2n1CC(CO)(CO)C3 [Cpd 27, 12,13-(2,2-bis-hydroxymethyl-propan-1,3-yl)-6,7,12,13-tetrahydro-5-oxo-5H-indolo[2,3-a]pyrrolo[3,4-c]carbazole] | 15 nM
CC(=O)c1ccc(N2CCN(C(=O)OC3CCn4c5ccccc5c5c6c(c7c8ccccc8n(c7c54)C3)C(=O)NC6=O)CC2)cc1 (centres unmarked) [Cpd 59, 12,13-(2-{[4-(4-methylcarbonyl-phenyl)piperazin-1-yl]carbonyloxy}-butan-1,4-yl)-12,13-dihydro-5,7-dioxo-6H-indolo[2,3-a]pyrrolo[3,4-c]carbazole] | 547 nM
CC(C)(C)OC(=O)N1CCC(NC(=O)OCC2(O)Cn3c4ccccc4c4c5c(c6c7ccccc7n(c6c43)C2)C(=O)NC5)CC1 (centres unmarked) [Cpd 177, 12,13-{2-hydroxy-2-[(1-t-butoxycarbonyl-piperidin-4-yl)carbamoyloxymethyl]-propan-1,3-yl}-6,7,12,13-tetrahydro-5-oxo-5H-indolo[2,3-a]pyrrolo[3,4-c]carbazole] | 143 nM
Cc1ccc(CNC(=O)OC2CCn3c4ccccc4c4c5c(c6c7ccccc7n(c6c43)C2)C(=O)NC5=O)o1 (centres unmarked) [Cpd 48, 12,13-(2-{[(5-methyl-furan-2-yl)methyl]carbamoyloxy}-butan-1,4-yl)-12,13-dihydro-5,7-dioxo-6H-indolo[2,3-a]pyrrolo[3,4-c]carbazole] | 11 nM
O=C1NC(=O)c2c1c1c3ccccc3n3c1c1c2c2ccccc2n1CC(O)(C(=O)N1CCN(c2ccccn2)CC1)C(O)C3 (centres unmarked) [Cpd 131, 12,13-{2-[(4-pyridin-2-yl-piperazin-1-yl)carbonyl]-2,3-dihydroxy-butan-1,4-yl}-12,13-dihydro-5,7-dioxo-6H-indolo[2,3-a]pyrrolo[3,4-c]carbazole] | 78 nM
O=C1NC(=O)c2c1c1c3ccccc3n3c1c1c2c2ccccc2n1CC(OC(=O)N1CCN(c2ccncc2)CC1)CC3 (centres unmarked) [Cpd 55, 12,13-{2-[(4-pyridin-4-yl-piperazin-1-yl)carbonyloxy]-butan-1,4-yl}-12,13-dihydro-5,7-dioxo-6H-indolo[2,3-a]pyrrolo[3,4-c]carbazole] | 314 nM
COC[C@H](C)NC(=O)OC1CCn2c3ccccc3c3c4c(c5c6ccccc6n(c5c32)CC1)C(=O)NC4 (stereo partly drawn) [Cpd 182, 12,13-[3-({2-[(1S)-2-methoxy-1-methyl]ethyl}carbamoyloxy)-pentan-1,5-yl]-6,7,12,13-tetrahydro-5-oxo-5H-indolo[2,3-a]pyrrolo[3,4-c]carbazole] | 1670 nM
O=C1NCc2c1c1c3ccccc3n3c1c1c2c2ccccc2n1CCC(OC(=O)N1CCN(c2ccc(O)cc2)CC1)CC3 (centres unmarked) [Cpd 181, 12,13-(3-{[4-(4-hydroxy-phenyl)piperazin-1-yl]carbonyloxy}-pentan-1,5-yl)-6,7,12,13-tetrahydro-5-oxo-5H-indolo[2,3-a]pyrrolo[3,4-c]carbazole] | 7360 nM
Cc1ccc(CNC(=O)OC2CCn3c4ccccc4c4c5c(c6c7ccccc7n(c6c43)C2)C(=O)NC5=O)cc1 (centres unmarked) [Cpd 45, 12,13-{2-[(4-methyl-benzyl)carbamoyloxy]-butan-1,4-yl}-12,13-dihydro-5,7-dioxo-6H-indolo[2,3-a]pyrrolo[3,4-c]carbazole] | 61 nM
COc1ccc(CCNC(=O)OC2CCn3c4ccccc4c4c5c(c6c7ccccc7n(c6c43)CC2)C(=O)NC5)cc1OC (centres unmarked) [Cpd 183, 12,13-(3-{[2-(3,4-dimethoxy-phenyl)ethyl]carbamoyloxy}-pentan-1,5-yl)-6,7,12,13-tetrahydro-5-oxo-5H-indolo[2,3-a]pyrrolo[3,4-c]carbazole] | 1270 nM

Source: US20070249590A1, “Substituted indolo[2,3-a]pyrrolo[3,4-c]carbazole compounds useful in treating kinase disorders” (priority 2005, published 2007)
